# Tests used:
# EZH2 = EZH2 (Homo sapiens, UniProt Q15910); assay: Inhibitory activity and time dependence against EZH2 (FIG. 2A); assay type: biochemical; conditions: result in words
# Source text: (§1) As depicted in FIG. 2A, Compounds EZ-40, EZ-49, EZ-51, EZ-52, EZ-53, and JQ-80 were profiled for inhibitory activity and time dependence against EZH1 and EZH2.
# EZH1 = EZH1 (Homo sapiens, UniProt Q92800); assay: Inhibitory activity and time dependence against EZH1 (FIG. 2A); assay type: biochemical; conditions: result in words
# EZH1, sequence (Q92800 whole entry): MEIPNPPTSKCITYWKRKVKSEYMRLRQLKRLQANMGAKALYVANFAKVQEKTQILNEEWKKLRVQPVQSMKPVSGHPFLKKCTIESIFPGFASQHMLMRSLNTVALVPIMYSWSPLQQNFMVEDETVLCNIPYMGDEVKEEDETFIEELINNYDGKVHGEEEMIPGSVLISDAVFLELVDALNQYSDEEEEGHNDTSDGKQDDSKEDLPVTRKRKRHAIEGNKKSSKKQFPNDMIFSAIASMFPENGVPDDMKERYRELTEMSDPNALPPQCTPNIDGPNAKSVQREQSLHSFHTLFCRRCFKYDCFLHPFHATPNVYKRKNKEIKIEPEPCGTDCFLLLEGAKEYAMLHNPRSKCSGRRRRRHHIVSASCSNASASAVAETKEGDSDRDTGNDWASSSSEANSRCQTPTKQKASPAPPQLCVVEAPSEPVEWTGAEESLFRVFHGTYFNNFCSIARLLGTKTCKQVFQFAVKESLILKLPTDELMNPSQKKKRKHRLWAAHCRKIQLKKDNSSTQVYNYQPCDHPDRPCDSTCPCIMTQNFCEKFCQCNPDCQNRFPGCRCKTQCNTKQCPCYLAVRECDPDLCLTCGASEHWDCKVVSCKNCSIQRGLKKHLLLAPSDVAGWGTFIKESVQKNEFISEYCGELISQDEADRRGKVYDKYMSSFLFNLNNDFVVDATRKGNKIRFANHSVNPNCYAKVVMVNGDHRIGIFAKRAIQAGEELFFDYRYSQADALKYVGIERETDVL
# EZH1, sequence (O75530 whole entry partner): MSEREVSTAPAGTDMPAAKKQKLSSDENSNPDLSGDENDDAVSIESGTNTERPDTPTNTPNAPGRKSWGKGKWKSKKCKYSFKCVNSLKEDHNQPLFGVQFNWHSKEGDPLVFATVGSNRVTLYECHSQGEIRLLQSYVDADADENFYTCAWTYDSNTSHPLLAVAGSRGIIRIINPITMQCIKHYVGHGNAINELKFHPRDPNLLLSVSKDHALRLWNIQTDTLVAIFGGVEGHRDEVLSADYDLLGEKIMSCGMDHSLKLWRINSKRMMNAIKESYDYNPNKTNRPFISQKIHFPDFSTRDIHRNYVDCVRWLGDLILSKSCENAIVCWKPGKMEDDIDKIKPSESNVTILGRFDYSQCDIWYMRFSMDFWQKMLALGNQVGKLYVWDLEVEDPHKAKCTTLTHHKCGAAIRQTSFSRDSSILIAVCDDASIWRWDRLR
# EZH1, sequence (Q15022 whole entry partner): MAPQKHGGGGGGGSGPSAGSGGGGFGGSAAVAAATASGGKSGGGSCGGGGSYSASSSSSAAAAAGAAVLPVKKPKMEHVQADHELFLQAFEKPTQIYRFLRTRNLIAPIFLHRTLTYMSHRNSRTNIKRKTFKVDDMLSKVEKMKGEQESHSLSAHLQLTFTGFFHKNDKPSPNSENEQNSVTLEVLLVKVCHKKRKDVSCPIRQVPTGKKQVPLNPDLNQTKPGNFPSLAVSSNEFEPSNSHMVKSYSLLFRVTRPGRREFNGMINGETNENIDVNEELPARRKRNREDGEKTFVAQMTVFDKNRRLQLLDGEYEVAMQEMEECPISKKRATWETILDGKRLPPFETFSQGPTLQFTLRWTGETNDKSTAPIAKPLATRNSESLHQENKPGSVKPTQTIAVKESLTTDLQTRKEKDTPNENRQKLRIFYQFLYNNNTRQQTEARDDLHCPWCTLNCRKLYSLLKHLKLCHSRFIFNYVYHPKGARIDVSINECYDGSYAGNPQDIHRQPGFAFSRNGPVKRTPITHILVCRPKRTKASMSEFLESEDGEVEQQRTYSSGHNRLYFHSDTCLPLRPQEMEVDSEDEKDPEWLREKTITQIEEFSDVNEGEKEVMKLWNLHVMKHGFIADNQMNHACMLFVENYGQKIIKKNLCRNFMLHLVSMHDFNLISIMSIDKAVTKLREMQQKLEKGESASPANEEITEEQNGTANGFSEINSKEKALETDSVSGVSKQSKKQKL
# Source text: as §1
# EZH2, sequence (Q15910 whole entry): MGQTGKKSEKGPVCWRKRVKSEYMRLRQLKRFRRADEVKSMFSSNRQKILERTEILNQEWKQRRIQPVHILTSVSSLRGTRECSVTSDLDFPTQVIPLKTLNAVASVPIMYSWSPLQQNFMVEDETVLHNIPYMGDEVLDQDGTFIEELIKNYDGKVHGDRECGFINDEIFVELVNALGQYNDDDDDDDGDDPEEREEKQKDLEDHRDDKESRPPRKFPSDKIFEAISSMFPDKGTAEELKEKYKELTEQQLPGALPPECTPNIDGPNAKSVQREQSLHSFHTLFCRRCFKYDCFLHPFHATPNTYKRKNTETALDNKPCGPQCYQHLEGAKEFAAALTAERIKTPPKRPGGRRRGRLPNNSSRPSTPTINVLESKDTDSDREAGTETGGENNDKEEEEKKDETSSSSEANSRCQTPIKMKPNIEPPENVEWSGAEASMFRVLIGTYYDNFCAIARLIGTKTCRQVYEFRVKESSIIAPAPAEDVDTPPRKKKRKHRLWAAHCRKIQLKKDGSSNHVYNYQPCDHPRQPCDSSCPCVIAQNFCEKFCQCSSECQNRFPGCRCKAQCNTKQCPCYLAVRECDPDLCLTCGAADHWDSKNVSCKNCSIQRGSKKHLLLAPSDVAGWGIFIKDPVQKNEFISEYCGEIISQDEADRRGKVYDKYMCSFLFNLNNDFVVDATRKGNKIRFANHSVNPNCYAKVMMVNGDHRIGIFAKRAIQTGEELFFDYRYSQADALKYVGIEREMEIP
# EZH2, sequence (O75530 whole entry partner): as the sequence (O75530 whole entry partner) above
# EZH2, sequence (Q15022 whole entry partner): as the sequence (Q15022 whole entry partner) above
structure (smiles),measurement,setting,value
C=CC(=O)N(c1cc(-c2ccc(N3CCN(C)CC3)nc2)cc(C(=O)NCc2c(CCC)cc(C)[nH]c2=O)c1C)C1CCOCC1 [EZ-53],inhibitory activity,EZH2,high potency
same,mode of inhibition,EZH2,irreversible inhibitor
same,time dependence,EZH2,time dependency
same,inhibitory activity,EZH1,high potency
same,mode of inhibition,EZH1,irreversible inhibitor
same,time dependence,EZH1,time dependency

# From patent US10633371B2, “EZH2 inhibitors and uses thereof” (Dana-Farber Cancer Institute, Inc., priority 2016, dated 2020)
